≈ marks a conversion by molar mass, not a printed value.
Assays:
[1] = test system: S. aureus; test: Peritonitis-sepsis model; assay type: in vivo, ICR mice; details: single use, i.p., 24 h postinfection, vs vehicle
Description: Peritonitis-sepsis model. Six to seven-week-old female ICR mice were included. […] Mice were injected with 500 μL of the suspension in the presence of 5% mucin by i.p.. An hour post-infection, the mice were administered with: 1) EL+ethanol, 2) […]-0546 (30 mg/kg), and 3) STK848198 (30 mg/kg) alone or in combination with ampicillin (AMP, 25 mg/kg)^38 or amikacin (AMK, 25 mg/kg).

[2] = test system: S. aureus ATCC 43300; test: Periprosthetic joint infection (PJI) model; assay type: in vivo, ICR mice; details: day 7, alone or in combination, i.p.
[3] = test system: S. aureus; test: MIC determination by microbroth dilution; assay type: cell-based, Staphylococcus aureus; details: for antimicrobial activity (in words): structure-activity relationship of C218-0546 analogs (Figure S1)
Description: Minimal inhibitory concentration (MIC) determination. The detection of MIC was performed by the microbroth dilution method with reference to the previously report by Wang et al^2. Briefly, the fresh bacterial suspension was adjusted to a McF standard equivalent of 0.5 (~1.5 × 10^8 CFU/mL) and then 100-fold diluted with MH broth. Fifty microliters of bacterial suspension with equal volume of serially diluted compounds (1-128 µg/mL) were added into a 96-well cell plate (Corning Costar, the United States) and incubated at 37°C for 16-18 h. The bacterial suspension without compounds was used as a negative control. The lowest concentration that inhibited visible bacterial growth was considered as the value of MIC.

[4] = test system: S. aureus ATCC 43300; test: One-step resistance assay (spontaneous resistance frequency); assay type: cell-based; details: 1◊MIC
Description: Resistance inducing assay. Consecutive and one-step resistance experiments were performed to assess the resistance-inducing ability of the compounds against S. aureus. For consecutive resistance assay, the MICs of compounds and ciprofloxacin (CIP) were determined on the first day. […] Subsequently, the equal volume of bacterial suspension was added to the serial concentrations of compounds or CIP into a 96-well plate, the new MICs were recorded every 24h for a total of 15 days. After 15 days of passages, the CIP-induced resistant S. aureus strains were obtained. And the antimicrobial activity of the compounds against the CIP-induced strains were assessed by microdilution assay as described above. For one-step resistance assay, overnight cultured S. aureus was adjusted to a final concentration of approximately OD630=0.5 with sterile saline. One hundred microliters of the bacterial suspension were uniformly spread in pre-prepared MH agar plates containing a specific concentration of compounds. Rifampicin (RFP) was used as a positive control. The viable cells were counted on the plates after incubation at 37°C for 48h. The frequency of spontaneous drug resistance mutation was defined as the ratio of the number of resistant CFU counts to the initial CFU counts^3.

Structure (SMILES): CC1(C)S[C@@H]2[C@H](NC(=O)[C@H](N)c3ccccc3)C(=O)N2[C@H]1C(=O)O [AMP, ampicillin, reference compound]
- bacterial loads in organs [1]: no statistical difference
- bacterial loads in the joint and its surrounding tissue [2]: reduce the bacterial loads

Structure (SMILES): Cc1ccc(CNC(=O)c2c[nH]n3c(=O)c(Cc4ccc(Cl)cc4)c(C)nc23)cc1 [C218-0468]
- antimicrobial activity (in words) [3]: did not optimize the MIC values

Structure (SMILES): CCCCCCCCCC(=O)N[C@@H](Cc1c[nH]c2ccccc12)C(=O)N[C@H](CC(N)=O)C(=O)N[C@@H](CC(=O)O)C(=O)N[C@@H]1C(=O)NCC(=O)N[C@@H](CCCN)C(=O)N[C@@H](CC(=O)O)C(=O)N[C@H](C)C(=O)N[C@@H](CC(=O)O)C(=O)NCC(=O)N[C@H](CO)C(=O)N[C@@H]([C@H](C)CC(=O)O)C(=O)N[C@@H](CC(=O)c2ccccc2N)C(=O)O[C@@H]1C [DAP, daptomycin]
- MIC ([3]; ATCC 25923): 1 µg/mL (≈ 0.617 µM)
- MIC ([3]; ATCC 43300): 1 µg/mL (≈ 0.617 µM)
- MIC ([3]; LZB1): 1 µg/mL (≈ 0.617 µM)
- MIC ([3]; Newman): 2 µg/mL (≈ 1.23 µM)
- MIC ([3]; R0645): 2 µg/mL (≈ 1.23 µM)
- MIC ([3]; R82174): 2 µg/mL (≈ 1.23 µM)
- MIC ([3]; SA1901): 1 µg/mL (≈ 0.617 µM)
- MIC ([3]; SA1902): 1 µg/mL (≈ 0.617 µM)
- MIC ([3]; SA1909): 1 µg/mL (≈ 0.617 µM)
- MIC ([3]; SA1910): 1 µg/mL (≈ 0.617 µM)
- MIC ([3]; SA1911): 2 µg/mL (≈ 1.23 µM)
- MIC ([3]; SA1912): 1 µg/mL (≈ 0.617 µM)
- MIC ([3]; SA1913): 1 µg/mL (≈ 0.617 µM)
- MIC ([3]; SA1914): 2 µg/mL (≈ 1.23 µM)
- MIC ([3]; SA1915): 1 µg/mL (≈ 0.617 µM)
- MIC ([3]; SAJ1 (VISA)): 32 µg/mL (≈ 19.7 µM)
- MIC ([3]; USA300): 1 µg/mL (≈ 0.617 µM)

Structure (SMILES): CO[C@H]1/C=C/O[C@@]2(C)Oc3c(C)c(O)c4c(O)c(c(/C=N/N5CCN(C)CC5)c(O)c4c3C2=O)NC(=O)/C(C)=C\C=C\[C@H](C)[C@H](O)[C@@H](C)[C@@H](O)[C@@H](C)[C@H](OC(C)=O)[C@@H]1C [RFP, Rifampicin]
- Spontaneous resistance frequency (mean±SD) [4]: (2.83±2.9) ×10^-7

Structure (SMILES): Cc1nc2c(C#N)c[nH]n2c(=O)c1Cc1ccccc1 [STK584829]
- antimicrobial activity (in words) [3]: vanished antimicrobial activity

Structure (SMILES): Cc1nc2oc3ccccc3c(=O)c2c2nc3ccccc3n12 [STK585953]
- antimicrobial activity (in words) [3]: reduce the antimicrobial ability

Structure (SMILES): CN[C@H](CC(C)C)C(=O)N[C@H]1C(=O)N[C@@H](CC(N)=O)C(=O)N[C@H]2C(=O)N[C@H]3C(=O)N[C@H](C(=O)N[C@H](C(=O)O)c4cc(O)cc(O)c4-c4cc3ccc4O)[C@H](O)c3ccc(c(Cl)c3)Oc3cc2cc(c3O[C@@H]2O[C@H](CO)[C@@H](O)[C@H](O)[C@H]2O[C@H]2C[C@](C)(N)[C@H](O)[C@H](C)O2)Oc2ccc(cc2Cl)[C@H]1O [VAN, vancomycin]
- MIC ([3]; ATCC 25923): 1 µg/mL (≈ 0.69 µM)
- MIC ([3]; ATCC 43300): 1 µg/mL (≈ 0.69 µM)
- MIC ([3]; LZB1): 1 µg/mL (≈ 0.69 µM)
- MIC ([3]; Newman): 2 µg/mL (≈ 1.38 µM)
- MIC ([3]; R0645): 1 µg/mL (≈ 0.69 µM)
- MIC ([3]; R82174): 1 µg/mL (≈ 0.69 µM)
- MIC ([3]; SA1901): 1 µg/mL (≈ 0.69 µM)
- MIC ([3]; SA1902): 0.5 µg/mL (≈ 0.345 µM)
- MIC ([3]; SA1909): 1 µg/mL (≈ 0.69 µM)
- MIC ([3]; SA1910): 1 µg/mL (≈ 0.69 µM)
- MIC ([3]; SA1911): 1 µg/mL (≈ 0.69 µM)
- MIC ([3]; SA1912): 1 µg/mL (≈ 0.69 µM)
- MIC ([3]; SA1913): 1 µg/mL (≈ 0.69 µM)
- MIC ([3]; SA1914): 1 µg/mL (≈ 0.69 µM)
- MIC ([3]; SA1915): 1 µg/mL (≈ 0.69 µM)
- MIC ([3]; SAJ1 (VISA)): 4 µg/mL (≈ 2.76 µM)
- MIC ([3]; USA300): 1 µg/mL (≈ 0.69 µM)
